Laboratory results reported in patent publication US9877956B2, “Antiviral compounds and methods of use thereof” (Trana Discovery, Inc., priority 2014, dated 2018).
Values after ≈ are worked out from the molar mass of the structure shown. Values joined by “and” are separate entries in the source; they are usually repeats but may differ in a detail not shown here. Identical values can stand only once.

Assays:
Assay type in all cases: cell-based
PBMC = test: Toxicity in PBMC (Cell Titer 96)
Source text: These compounds were further screened for activity in HIV-1-infected peripheral blood mononuclear cells (PBMC). The data (experiments were repeated, so duplicates are shown) is summarized in the tables below, and also in FIGS. 4A-B and 5A-B.

HIV-1 92/HT/599 = HIV-1 92/HT/599 replication in human PBMCs, reverse transcriptase in culture supernatants (RLU); details: for RLU (Relative Light Units), SAMPLE: individual samples, listed as Trana 156
Experimental: (§1) In these studies, PHA-P stimulated PBMCs from three donors were pooled together and re-suspended in fresh tissue culture medium at 1×10^6 cells/mL and plated in the interior wells of a 96 well round bottom microplate at 50µl/well. A 100µL volume of 9 concentrations of compound serially diluted were transferred to the round-bottom 96 well plate containing the cells in triplicate. Fifty microliters (µL) of HIV-1 at a pre-determined dilution was added. Each plate contained cell control wells and virus control wells in parallel with the experimental wells. After 7 days in culture, efficacy was evaluated by measuring the reverse transcriptase in the culture supernatants and the cells were stained with the tetrazolium dye XTT to evaluate cytotoxicity.

HUMAN PBMCS = test: Cytotoxicity in human PBMCs (XTT); details: for TOXICITY VALUES (XTT - O.D. @ 450/650 nm), SAMPLE: individual samples, listed as Trana 156
Experimental: as §1

SMILES: CC1(C)OC(=O)C(=Cc2ccc(I)o2)C(=O)O1 [HIT #156]
- TOXICITY VALUES (Cell Titer 96 - O.D. @ 490/650 nm), MEAN (PBMC; 100 μM): 1.613 O.D. and 0.847 O.D.
- % CC (PBMC; 100 μM, O.D. relative to cell control): 90.6% and 110.3%
- TOXICITY VALUES (Cell Titer 96 - O.D. @ 490/650 nm), SAMPLE (PBMC; 100 μM, individual samples): 1.651 O.D. and 1.594 O.D. and 0.795 O.D. and 0.787 O.D. and 0.978 O.D.
- TC 90% (PBMC; PBMC, Cell Titer 96): >100 µM
- TC 95% (PBMC; PBMC, Cell Titer 96): >100 µM
- % Virus Control (HIV-1 92/HT/599; 0.32 μg/ml): 93.58%
- Antiviral Test Values Mean RLU (HIV-1 92/HT/599; 0.32 μg/ml): 18048.7 RLU
- RLU (Relative Light Units), SAMPLE (HIV-1 92/HT/599; 0.32 μg/ml): 9520.0 RLU and 22416.0 RLU and 22210.0 RLU
- % Virus Control (HIV-1 92/HT/599; 1 μg/ml): 110.39%
- Antiviral Test Values Mean RLU (HIV-1 92/HT/599; 1 μg/ml): 21291.7 RLU
- RLU (Relative Light Units), SAMPLE (HIV-1 92/HT/599; 1 μg/ml): 24338.0 RLU and 22848.0 RLU and 16689.0 RLU
- % Virus Control (HIV-1 92/HT/599; 3.16 μg/ml): 62.76%
- Antiviral Test Values Mean RLU (HIV-1 92/HT/599; 3.16 μg/ml): 12105.7 RLU
- RLU (Relative Light Units), SAMPLE (HIV-1 92/HT/599; 3.16 μg/ml): 9530.0 RLU and 14041.0 RLU and 12746.0 RLU
- % Virus Control (HIV-1 92/HT/599; 9.99 μg/ml): 4.15%
- Antiviral Test Values Mean RLU (HIV-1 92/HT/599; 9.99 μg/ml): 800.0 RLU
- RLU (Relative Light Units), SAMPLE (HIV-1 92/HT/599; 9.99 μg/ml): 138.0 RLU and 48.0 RLU and 2214.0 RLU
- % Virus Control (HIV-1 92/HT/599; 31.6 μg/ml): 0.21%
- Antiviral Test Values Mean RLU (HIV-1 92/HT/599; 31.6 μg/ml): 41.3 RLU
- RLU (Relative Light Units), SAMPLE (HIV-1 92/HT/599; 31.6 μg/ml): 46.0 RLU and 42.0 RLU and 36.0 RLU
- % Virus Control (HIV-1 92/HT/599; 100 μg/ml): 0.31%
- Antiviral Test Values Mean RLU (HIV-1 92/HT/599; 100 μg/ml): 60.7 RLU
- RLU (Relative Light Units), SAMPLE (HIV-1 92/HT/599; 100 μg/ml): 68.0 RLU and 62.0 RLU and 52.0 RLU
- EC 25% (HIV-1 92/HT/599; HIV-1 92/HT/599, human PBMCs): 2.35 µg/mL (≈ 6.75 µM)
- EC 95% (HIV-1 92/HT/599; HIV-1 92/HT/599, human PBMCs): 9.82 µg/mL (≈ 28.2 µM)
- EC50 (HIV-1 92/HT/599; Human immunodeficiency virus 1, PBMC, read-out: EC50 (EC 50%), HIV-1 92/HT/599, human PBMCs): 4.06 µg/mL (≈ 11.7 µM)
- Therapeutic Index (TI) 25% (HIV-1 92/HT/599; TC/EC at 25%): 5.23
- Therapeutic Index (TI) 50% (HIV-1 92/HT/599; TC/EC at 50%): 4.43
- Therapeutic Index (TI) 95% (HIV-1 92/HT/599; TC/EC at 95%): <10.18
- % Cell Viability (HUMAN PBMCS; 0.32 μg/ml): 97.66%
- Cytotoxicity Test Values Mean OD @ 450/650 nm (HUMAN PBMCS; 0.32 μg/ml): 1.094 OD
- TOXICITY VALUES (XTT - O.D. @ 450/650 nm), SAMPLE (HUMAN PBMCS; 0.32 μg/ml): 1.0465 O.D. (2×) and 1.1893 O.D.
- % Cell Viability (HUMAN PBMCS; 1 μg/ml): 99.50%
- Cytotoxicity Test Values Mean OD @ 450/650 nm (HUMAN PBMCS; 1 μg/ml): 1.115 OD
- TOXICITY VALUES (XTT - O.D. @ 450/650 nm), SAMPLE (HUMAN PBMCS; 1 μg/ml): 1.1281 O.D. (2×) and 1.0879 O.D.
- % Cell Viability (HUMAN PBMCS; 3.16 μg/ml): 87.52%
- Cytotoxicity Test Values Mean OD @ 450/650 nm (HUMAN PBMCS; 3.16 μg/ml): 0.980 OD
- TOXICITY VALUES (XTT - O.D. @ 450/650 nm), SAMPLE (HUMAN PBMCS; 3.16 μg/ml): 0.9762 O.D. (2×) and 0.9889 O.D.
- % Cell Viability (HUMAN PBMCS; 9.99 μg/ml): 89.00%
- Cytotoxicity Test Values Mean OD @ 450/650 nm (HUMAN PBMCS; 9.99 μg/ml): 0.997 OD
- TOXICITY VALUES (XTT - O.D. @ 450/650 nm), SAMPLE (HUMAN PBMCS; 9.99 μg/ml): 1.1309 O.D. (2×) and 0.7293 O.D.
- % Cell Viability (HUMAN PBMCS; 31.6 μg/ml): 12.90%
- Cytotoxicity Test Values Mean OD @ 450/650 nm (HUMAN PBMCS; 31.6 μg/ml): 0.145 OD
- TOXICITY VALUES (XTT - O.D. @ 450/650 nm), SAMPLE (HUMAN PBMCS; 31.6 μg/ml): 0.1469 O.D. (2×) and 0.1399 O.D.
- % Cell Viability (HUMAN PBMCS; 100 μg/ml): 14.76%
- Cytotoxicity Test Values Mean OD @ 450/650 nm (HUMAN PBMCS; 100 μg/ml): 0.165 OD
- TOXICITY VALUES (XTT - O.D. @ 450/650 nm), SAMPLE (HUMAN PBMCS; 100 μg/ml): 0.1657 O.D. (2×) and 0.1646 O.D.
- TC 25% (HUMAN PBMCS; human PBMCs, XTT): 12.3 µg/mL (≈ 35.3 µM)
- TC50 (TC 50%) (HUMAN PBMCS; human PBMCs, XTT): 18.0 µg/mL (≈ 51.7 µM)
- TC 95% (HUMAN PBMCS; human PBMCs, XTT): <100 µg/mL
